# Test results reported in US9188580B2, “Gene reporter assay, kit, and cells for determining the presence and/or the level of a molecule that activates signal transduction activity of a cell surface protein” (LE CENTRE NATIONALE DE LA RECHERCHE SCIENTIFIQUE, priority 2002, dated 2015).
# Tests used:
# PIL5 cells [1] = experiment: Luciferase gene reporter assay for Type I interferon: IFN sensitivity of PIL5 cells treated with anti-mitotic agent, frozen and thawed; assay type: cell-based, human
# Experimental: • 1. Remove protective cover from the sample preparation micro-plate (Plate A). • 2. Add 100 μl of the diluent (RPMI 1640 medium without serum) to wells A1 through A6 and B1 through B6 of the sample preparation plate (Plate A). • 3. Add 100 μl of the interferon (IFN) reference preparation to wells A1 and B1 of Plate A containing 100 μl of diluent. • 4. Carry out serial two-fold dilutions of the IFN reference preparation in Plate A from wells A1 and B1 through wells A6 and B6 using a multi-channel micro-pipette. Sample preparation • 1. Add 100 μl of the diluent to the wells of the sample preparation plate (Plate A) where required. • 2. Dilute samples to be tested if the estimated IFN titer of the samples is greater than 100 IU/ml. • 3. Dilute samples appropriately in the sample preparation micro-plate (Plate A) Assay Procedure • 1. Rapidly thaw the 96-well PIL5 assay micro-plate (Plate B) on a flat surface with the cover uppermost. A water-bath set at 37° C. can be used for convenience. • 2. Dry protective cover with a paper hand towel, taking care to maintain the label uppermost. • 3. Carefully remove protective cover from the PIL5 assay micro-plate (Plate B) while maintaining the cover uppermost. • 4. Add 75 μl of each of the serial two-fold dilutions of the reference preparation to wells A1 and B1 through wells A6 and B6 of the PIL5 assay micro-plate (Plate B) using a multi-channel micro-pipette. • 5. Add 75 μl of each undiluted or appropriately diluted sample to the PIL assay micro-plate […]. • 6. Incubate the PIL5 assay micro-plate (Plate B) overnight at 37° C. in an atmosphere of 5% CO2 in air. A CO2 incubator can be used for convenience. • 7. […] Determine the luminescence of the samples using a micro-plate luminometer (LUMICOUNT, Packard). […] Plot standard curve from the mean of the luminescence readings for each dilution of the IFN reference preparation calibrated against the NIH international reference standard for HuIFN-α (G-023-901-527) using Microsoft EXCEL. • 2. […]
# PIL5 cells [2] = experiment: Prevention of cell replication of PIL5 cells by anti-mitotic and pro-apoptotic agent; assay type: cell-based, human; conditions: at the doses tested
# Experimental: Studies on the effects of a variety of parameters, i.e., concentration of vinblastine, time of treatment with vinblastine, fetal bovine serum (FBS) concentration, glycerol concentration in the presence or absence of DMSO, SMSO concentration, cell density, on interferon sensitivity of frozen cells were conducted to determine optimal conditions. It may not be apparent from the results shown in FIG. 12 why vinblastine instead of 5-FU was chosen as the more preferred anti-mitotic and pro-apoptotic agent for treatment of PIL5 cells prior to freezing.
smiles,measurement,setting,value
CC[C@]1(O)C[C@@H]2CN(CCc3c([nH]c4ccccc34)[C@@](C(=O)OC)(c3cc4c(cc3OC)N(C)[C@H]3[C@@](O)(C(=O)OC)[C@H](OC(C)=O)[C@]5(CC)C=CCN6CC[C@]43[C@@H]65)C2)C1 [vinblastine],IFN sensitivity of PIL5 cells after treatment and freezing,"PIL5 cells [1]; 100 μM vinblastine, 1.0 hour at 37° C., one month at −20° C., FIG. 11",retain full IFN sensitivity
"C[S+](C)[O-] [DMSO, dimethyl sulfoxide]",protection of cells frozen at −20° C. and effect on sensitivity to IFN,"PIL5 cells [1]; no special freezing or thawing techniques, FIG. 11",without adversely affecting their sensitivity to IFN
"O=c1[nH]cc(F)c(=O)[nH]1 [5-FU, 5-fluorouracil]",preventing cell replication,PIL5 cells [2],not found to be sufficiently effective
same,maintaining interferon sensitivity of frozen PIL5 cells,"PIL5 cells [1]; treatment prior to freezing, compared with vinblastine, FIG. 12",superior to vinblastine
